In US6603023B2 (priority 1996, dated 2003):
Like-named read-outs stand apart in the source and are kept apart here. Marks after values point to notes of the source that are not given here.

Tests used:
[1] = test system: CCRF-CEM human T-cell acute lymphoblastic leukemia cell line; assay: XTT cytotoxicity (cell growth inhibition), CCRF-CEM
Method: (§1) The DC-3F hamster lung fibroblast cell line and its actinomycin D-selected sublines (DC-3F/ADII and DC-3F/ADX) were obtained from the Memorial Sloan-Kettering Cancer Center (MSKCC).
(§2) The drug-resistant cell lines were continuously cultured in the presence of the selecting agent, AD, DX, VBL or VM to maintain the drug resistant phenotypes. […] All cells were cultured in RPMI 1640-10% FBS at 37° C. 5% CO2 (see below).
(§3) The cells were cultured at an initial density of 5×10^4 cells/mL. They were maintained in a 5% CO2-humidified atmosphere at 37° C. in RPMI-1640 medium (GIBCO-BRL, Gaithersburg, Md.) containing penicillin (100 U/mL), streptomycin ([…]) (GIBCO-BRL) and 10% heat inactivate fetal bovine serum. Culture for cell suspension (such as for CCRF-CEM, P388 and sublines), were performed by the XTT-microculture tetrazonium method (Scudiero, D. A. et al., Cancer Res. 1988, 48, 4827-4833) in duplicate in 96-well microtiter plates.
(§4) 2′,3′-Bis(methoxy-4-nitro-5-sufophenyl)-5-[(phenylamino)carbonyl]2H-tetrazolium hyudroxide (XTT) was prepared at 1 mg/mL in prewarmed (37° C.) medium without serum. Phenazine methosulfate (PMS) and fresh XTT were mixed together to obtain 0.025 mM PMS-XTT solution (25 μL of the stock 5 mM PMS was added per 5 mL of 1 mg/mL XTT). Following a 72 h incubation, 50 μL of the assay aliquots were added to each well of the cell culture. After incubation at 37° C. for 4 h, absorbance at 450 nm and 630 nm was measured with a microplate reader (EL340, Bio-Tek Instruments, Inc., Winooski, Vt.).

DC-3F/ADII = assay: SRB cytotoxicity, DC-3F/ADII; format: cell-based, hamster; conditions: Table 3; read-out: IC50
Method: as §1, §2
(§5) The cytotoxicity of the drug toward the monolayer cell cultures (such as DC-3F, MCF-7, SK-N-As and sublines) was determined in 96-well microtiter plates by the SRB method as described by Skehan and co-workers (Skehan, P., et al., J. Natl. Cancer Inst. 1990, 82, 1107-1112) for measuring the cellular protein content. Cultures were fixed with trichloroacetic acid and then stained for 30 min with 0.4% suforhodamine B dissolved in 1% acetic acid. Unbound dye was removed by acetic acid washes, and the protein-bound dye was extracted with an unbuffered Tris base (tris(hydroxy-methyl)aminomethane) for determination of absorbance at 570 nm in a 96-well microtiter plate reader. The experiments were carried out in duplicate. Each run entailed six to seven concentrations of the tested drugs. Data were analyzed with the median-effect plot (Chou, T.-C. & Talalay, P. T. (1984) Adv. Enzyme Regul. 22, 27-55) using a previously described computer program (Chou, J., & Chou T.-C. 1987, Dose-effect analysis with microcomputers: Quantitation of ED50, synergism, antagonism, low-dose risk, reception-ligand binding and enzyme kinetics, IBM-PC software and manual, Biosoft, Cambridge, U.K.).
(§6) Concerning Table 3, experiments were carried out using the cell lines DC-3F (parent hamster lung cells), DC-3F/ADII (moderate multidrug-resistant (MDR) cells) and DC-3F/ADX (very strong MDR cells).

DC-3F/ADX = assay: cells; format: cell-based, hamster; conditions: Table 3; read-out: IC50
Method: as §1, §2, §5, §6

[2] = test system: DC-3F hamster lung fibroblast cell line; assay: SRB cytotoxicity, DC-3F; format: cell-based; conditions: Table 3; read-out: IC50
Method: as §1, §2, §5

CCRF-CEM/VM1 = assay: cells; format: cell-based, human
Method: as §2, §3, §4

CCRF-CEM/VBL100 = assay: cells; format: cell-based, human
Method: as §2, §3, §4

[3] = Table 2, CCR-CEM/VM-1, read-out: IC50
[4] = Table 6, single determinations, read-out: IC50
[5] = Table 2, CCRF-CEM/VLB, read-out: IC50
[6] = Table 7, CEM/VBL, read-out: IC50
[7] = Table 6, read-out: IC50 (mean ± of determinations, in parentheses)
[8] = Table 6, single determinations, listed as 8, read-out: IC50
[9] = Table 6, single determinations, listed as EPOTHILONE B (Synthetic), read-out: IC50
[10] = Table 5, CCRF-CEM/VLB, single determinations, read-out: IC50

CC(=Cc1csc(C)n1)C1CC2OC2CC=CCCCCC(C)(C)CCC(=O)O1 (stereo not drawn) [#3]
IC50 ([1]; Table 2): 272000 nM
IC50 ([1]; Table 6, single determinations): 272000 nM
IC50 ([1]; Table 7, CEM): 272000 nM
IC50 ([1]; read-out: IC50 (A), Table 2A, parent cell line): 272000 nM
IC50 (DC-3F/ADII): 3000 nM
IC50 (DC-3F/ADX): 972 nM
IC50 [2]: 9.52 µM
IC50 (CCRF-CEM/VM1; [3]): 11.6 µM
(C)/(A) ratio (fold resistance >1, collateral sensitivity <1) (CCRF-CEM/VM1; Table 2A): (0.043)^b
IC50 (CCRF-CEM/VM1; Table 2A, Topo II gene mutated cell line, read-out: IC50 (C)): 11.6 µM
IC50 (CCRF-CEM/VM1; [4]): 11.6 µM
IC50 (CCRF-CEM/VBL100; [5]): 22400 nM
(B)/(A) ratio (fold resistance >1, collateral sensitivity <1) (CCRF-CEM/VBL100; Table 2A): (0.082)^b
IC50 (CCRF-CEM/VBL100; Table 2A, MDR cell line, read-out: IC50 (B)): 22400 nM
IC50 (CCRF-CEM/VBL100; [4]): 22400 nM
IC50 (CCRF-CEM/VBL100; [6]): 22400 nM

C/C(=C\c1csc(C)n1)[C@@H]1C[C@@H]2O[C@]2(C)CCC[C@H](C)[C@H](O)[C@@H](C)C(=O)C(C)(C)[C@@H](O)CC(=O)O1 [#8, epothilone B]
IC50 ([1]; Table 5, single determinations): 0.42 nM
IC50 ([1]; Table 6, single determinations, listed as 8): 0.82 nM
IC50 ([1]; Table 6, single determinations, listed as EPOTHILONE B (Synthetic)): 0.55 nM
IC50 ([1]; Table 7, CEM, listed as synthetic epothilone B): 0.82 nM
IC50 ([1]; read-out: IC50 (mean ± of determinations, in parentheses), Table 6): 0.35 nM
IC50 (CCRF-CEM/VM1; [7]): 0.00126 µM
IC50 (CCRF-CEM/VM1; [8]): 0.0044 µM
IC50 (CCRF-CEM/VM1; [9]): 0.0018 µM
IC50 (CCRF-CEM/VBL100; [10]): 1.7 nM
IC50 (CCRF-CEM/VBL100; [7]): 2.13 nM
IC50 (CCRF-CEM/VBL100; [8]): 2.9 nM
IC50 (CCRF-CEM/VBL100; [9]): 3.1 nM
IC50 (CCRF-CEM/VBL100; Table 7, CEM/VBL, listed as synthetic epothilone B, read-out: IC50): 2.93 nM

CC1=CCC(C(C)=Cc2csc(C)n2)OC(=O)CC(O)C(C)(C)C(=O)C(C)C(O)C(C)CCC1 (stereo not drawn) [#11]
IC50 ([1]; Table 6, single determinations): 90 nM
IC50 ([1]; Table 7, CEM): 90 nM
IC50 (CCRF-CEM/VM1; [4]): 0.094 µM
IC50 (CCRF-CEM/VBL100; [4]): 262 nM
IC50 (CCRF-CEM/VBL100; [6]): 262 nM
IC50 (CCRF-CEM/VBL100; read-out: IC50): 262 nM

C=CC[C@H](OC(=O)C[C@H](O)C(C)(C)C(=O)[C@H](C)[C@@H](O)[C@@H](C)CCCC(=C)C)/C(C)=C/c1csc(C)n1 [#13]
IC50 ([1]; Table 6, single determinations): 11500 nM
IC50 ([1]; Table 7, CEM): 11500 nM
IC50 (CCRF-CEM/VM1; [4]): 14.5 µM
IC50 (CCRF-CEM/VBL100; [4]): 5630 nM
IC50 (CCRF-CEM/VBL100; [6]): 5630 nM

C/C(=C\c1csc(C)n1)[C@@H]1C[C@@H]2O[C@@H]2CCC[C@H](C)[C@H](O)[C@@H](C)C(=O)C(C)(C)[C@@H](O)CC(=O)O1 [EPOTHILONE A SYNTHETIC, epothilone A]
IC50 ([1]; Table 2): 2.9 nM
IC50 ([1]; Table 5, single determinations): 2.1 nM
IC50 (DC-3F/ADII): 13.2 nM
IC50 (DC-3F/ADX): 70 nM
IC50 [2]: 0.00354 µM
IC50 (CCRF-CEM/VM1; [3]): 0.0034 µM
IC50 (CCRF-CEM/VBL100; [5]): 20.3 nM
IC50 (CCRF-CEM/VBL100; [10]): 15 nM

C/C(=C\c1csc(C)n1)[C@@H]1C/C=C\CCCC[C@H](O)[C@@H](C)C(=O)C(C)(C)[C@@H](O)CC(=O)O1 [#14, Desmethyldesoxyepothilone A]
IC50 ([1]; Table 1, XTT): 5000 nM
IC50 ([1]; Table 6, single determinations): 5420 nM
IC50 ([1]; Table 7, CEM): 5420 nM
times less active than corresponding epothilone A counterpart (cytotoxicity) ([1]; see Table 1): approximately 200 times
IC50 (CCRF-CEM/VM1; Table 1, XTT, read-out: IC50): 6.29 µM
IC50 (CCRF-CEM/VM1; [4]): 6.29 µM
IC50 (CCRF-CEM/VBL100; Table 1, XTT, read-out: IC50): 5750 nM
IC50 (CCRF-CEM/VBL100; [4]): 5750 nM
IC50 (CCRF-CEM/VBL100; [6]): 5750 nM
